From US20170107179A1 (Tetraphase Pharmaceuticals, Inc., priority 2010, published 2017)
≈ marks a conversion by molar mass, not a printed value. Like-named read-outs stand apart in the source and are kept apart here.

Columns and labels:
[1] = tested on: Gram-negative and Gram-positive organisms (clinical isolates); assay: Broth microdilution MIC against clinical isolates (CLSI M7-A8), Table 9; format: cell-based
S. aureus Smith = assay: Mouse systemic infection (septicemia) model, CD-1 mice; conditions: Staphylococcus aureus, in Mus musculus, 48 h; for responders at 3 mg/kg: iv, read-out: Percent survival at 48 hours, IV (3 mg/kg); for responders at 30 mg/kg: po, read-out: Percent survival at 48 hours, PO (30 mg/kg)
[2] = Klebsiella aerogenes, Enterobacter aerogenes, n=30
[3] = Klebsiella pneumoniae, Klebsiella pneumonia, n=27
[4] = Salmonella species, n=30, read-out: MIC50
[5] = Stenotrophomonas maltophilia, n=29
[6] = Staphylococcus aureus, Staphylococcus aureus (MRSA PVL+), n=30, read-out: MIC50
[7] = Staphylococcus aureus, Staphylococcus aureus (MRSA PVL+), n=30, read-out: MIC90
[8] = Streptococcus intermedius, n=30
[9] = Acinetobacter lwoffii, n=29, read-out: MIC50
[10] = Acinetobacter lwoffii, n=29, read-out: MIC90
[11] = Streptococcus sanguis, n=18, read-out: MIC50
[12] = Streptococcus sanguis, n=18, read-out: MIC90
[13] = Staphylococcus aureus, Staphylococcus aureus MRSA (includes MRSA PVL+ group), n=105, read-out: MIC50
[14] = Staphylococcus aureus, Staphylococcus aureus MRSA (includes MRSA PVL+ group), n=105, read-out: MIC90

## CC(C)(O/N=C(\C(=O)N[C@@H]1C(=O)N2C(C(=O)[O-])=C(C[n+]3ccccc3)CS[C@H]12)c1csc(N)n1)C(=O)O [Ceftazidime]
[1]; Acinetobacter lwoffii, n=29
  MIC50: 1 mg/L (≈ 1.83 µM)
  MIC90: 16 mg/L (≈ 29.3 µM)
[1]; Enterobacter cloacae, n=29
  MIC50: > 64 mg/L
  MIC90: > 64 mg/L
[1]; Escherichia coli, n=40
  MIC50: 64 mg/L (≈ 117 µM)
  MIC90: > 64 mg/L
[1]; Kiebsielia oxytoca, n=30
  MIC50: ≤ 0.5 mg/L
  MIC90: ≤ 0.5 mg/L
[1]; [2]
  MIC50: ≤ 0.5 mg/L
  MIC90: 16 mg/L (≈ 29.3 µM)
[1]; [3]
  MIC50: > 64 mg/L
  MIC90: > 64 mg/L
[1]; Morganella morganii, n=30
  MIC50: ≤ 0.5 mg/L
  MIC90: 4 mg/L (≈ 7.32 µM)
[1]; Proteus vulgaris, n=29
  MIC50: ≤ 0.5 mg/L
  MIC90: > 64 mg/L
[1]; [4]
  MIC50: ≤ 0.5 mg/L
[1]; Serratia marcescens, n=30
  MIC50: ≤ 0.5 mg/L
  MIC90: ≤ 0.5 mg/L
[1]; [5]
  MIC50: 8 mg/L (≈ 14.6 µM)
  MIC90: > 64 mg/L

## CCC[C@@H]1C[C@@H](C(=O)N[C@@H]([C@H]2O[C@H](SC)[C@H](O)[C@@H](O)[C@H]2O)[C@H](C)Cl)N(C)C1 [Clindamycin]
[1]
  MIC50: 0.03 mg/L (≈ 0.0706 µM)
  MIC90: 0.06 mg/L (≈ 0.141 µM)
[1]; [6]
  MIC50: 0.06 mg/L (≈ 0.141 µM)
[1]; [7]
  MIC90: 0.12 mg/L (≈ 0.282 µM)
[1]; Streptococcus anginosus, n=20
  MIC50: ≤ 0.015 mg/L
  MIC90: 0.03 mg/L (≈ 0.0706 µM)
[1]; [8]
  MIC50: ≤ 0.015 mg/L
  MIC90: 0.06 mg/L (≈ 0.141 µM)
[1]; Streptococcus mitis, n=29
  MIC50: 0.03 mg/L (≈ 0.0706 µM)
  MIC90: 0.06 mg/L (≈ 0.141 µM)

## CCC(C)(C)N1Cc2c(O)c3c(c(N(C)C)c2C1)C[C@H]1C[C@H]2[C@H](N(C)C)C(O)=C(C(N)=O)C(=O)[C@@]2(O)C(O)=C1C3=O [Compound 103]
S. aureus Smith
  responders at 3 mg/kg: 83%
  responders at 30 mg/kg: 100%

## CC(C)[C@@H](C)N1Cc2c(O)c3c(c(F)c2C1)C[C@H]1C[C@H]2[C@H](N(C)C)C(O)=C(C(N)=O)C(=O)[C@@]2(O)C(O)=C1C3=O [Compound 106]
S. aureus Smith
  responders at 3 mg/kg: 17%
  responders at 30 mg/kg: 20%

## CC[C@H](C)N1Cc2c(O)c3c(c(Cl)c2C1)C[C@H]1C[C@H]2[C@H](N(C)C)C(O)=C(C(N)=O)C(=O)[C@@]2(O)C(O)=C1C3=O [Compound 110]
S. aureus Smith
  responders at 3 mg/kg: 33%
  responders at 30 mg/kg: 50%

## CN(C)[C@@H]1C(O)=C(C(N)=O)C(=O)[C@@]2(O)C(O)=C3C(=O)c4c(O)c5c(c(C(F)(F)F)c4C[C@H]3C[C@@H]12)CN(C(C)(C)C)C5 [Compound 112]
S. aureus Smith
  responders at 3 mg/kg: 100%
  responders at 30 mg/kg: 20%

## CN(C)c1c2c(c(O)c3c1C[C@H]1C[C@H]4[C@H](N(C)C)C(O)=C(C(N)=O)C(=O)[C@@]4(O)C(O)=C1C3=O)CN(C(C)(C)C)C2 [Compound 115]
S. aureus Smith
  responders at 3 mg/kg: 100%
  responders at 30 mg/kg: 100%

## CN(C)[C@@H]1C(O)=C(C(N)=O)C(=O)[C@@]2(O)C(O)=C3C(=O)c4c(O)c5c(c(F)c4C[C@H]3C[C@@H]12)CN(C(C)(C)C1CC1)C5 [Compound 118]
S. aureus Smith
  responders at 3 mg/kg: 17%
  responders at 30 mg/kg: 50%

## CCC(C)(C)N1Cc2c(O)c3c(c(OC)c2C1)C[C@H]1C[C@H]2[C@H](N(C)C)C(O)=C(C(N)=O)C(=O)[C@@]2(O)C(O)=C1C3=O [Compound 119]
S. aureus Smith
  responders at 3 mg/kg: 83%
  responders at 30 mg/kg: 75%

## CC[C@H](C)N1Cc2c(O)c3c(c(F)c2C1)C[C@H]1C[C@H]2[C@H](N(C)C)C(O)=C(C(N)=O)C(=O)[C@@]2(O)C(O)=C1C3=O [Compound 123]
S. aureus Smith
  responders at 3 mg/kg: 33%
  responders at 30 mg/kg: 67%

## COc1c2c(c(O)c3c1C[C@H]1C[C@H]4[C@H](N(C)C)C(O)=C(C(N)=O)C(=O)[C@@]4(O)C(O)=C1C3=O)CN(C(C)(C)C)C2 [Compound 125]
S. aureus Smith
  responders at 3 mg/kg: 100%
  responders at 30 mg/kg: 33%

## C[C@@H](O)[C@H]1C(=O)N2C(C(=O)O)=C(S[C@@H]3CN[C@H](C(=O)Nc4cccc(C(=O)O)c4)C3)[C@H](C)[C@H]12 [Ertapenem]
[1]; [9]
  MIC50: ≤ 1 mg/L
[1]; [10]
  MIC90: 4 mg/L (≈ 8.41 µM)
[1]; Enterobacter cloacae, n=29
  MIC50: ≤ 1 mg/L
  MIC90: > 8 mg/L
[1]; Escherichia coli, n=40
  MIC50: ≤ 1 mg/L
  MIC90: ≤ 1 mg/L
[1]; Kiebsielia oxytoca, n=30
  MIC50: ≤ 1 mg/L
  MIC90: ≤ 1 mg/L
[1]; [2]
  MIC50: ≤ 1 mg/L
  MIC90: ≤ 1 mg/L
[1]; [3]
  MIC50: ≤ 1 mg/L
  MIC90: 8 mg/L (≈ 16.8 µM)
[1]; Morganella morganii, n=30
  MIC50: ≤ 1 mg/L
  MIC90: ≤ 1 mg/L
[1]; Proteus vulgaris, n=29
  MIC50: ≤ 1 mg/L
  MIC90: ≤ 1 mg/L
[1]; [4]
  MIC50: ≤ 1 mg/L
[1]; Serratia marcescens, n=30
  MIC50: ≤ 1 mg/L
  MIC90: ≤ 1 mg/L
[1]; [6]
  MIC50: 4 mg/L (≈ 8.41 µM)
[1]; [7]
  MIC90: 8 mg/L (≈ 16.8 µM)
[1]; [5]
  MIC50: > 8 mg/L
  MIC90: > 8 mg/L
[1]; Streptococcus anginosus, n=20
  MIC50: 0.12 mg/L (≈ 0.252 µM)
  MIC90: 0.25 mg/L (≈ 0.526 µM)
[1]; [8]
  MIC50: 0.06 mg/L (≈ 0.126 µM)
  MIC90: 0.5 mg/L (≈ 1.05 µM)
[1]; Streptococcus mitis, n=29
  MIC50: 0.25 mg/L (≈ 0.526 µM)
  MIC90: > 1 mg/L
[1]; [11]
  MIC50: 0.12 mg/L (≈ 0.252 µM)
[1]; [12]
  MIC90: 0.5 mg/L (≈ 1.05 µM)

## C[C@H]1COc2c(N3CCN(C)CC3)c(F)cc3c(=O)c(C(=O)O)cn1c23 [Levofloxacin, levofloxacin]
[1]; [9]
  MIC50: ≤ 0.25 mg/L
[1]; [10]
  MIC90: ≤ 0.25 mg/L
[1]; Enterobacter cloacae, n=29
  MIC50: 1 mg/L (≈ 2.77 µM)
  MIC90: > 4 mg/L
[1]; Escherichia coli, n=40
  MIC50: ≤ 0.25 mg/L
  MIC90: > 4 mg/L
[1]; Kiebsielia oxytoca, n=30
  MIC50: ≤ 0.25 mg/L
  MIC90: 4 mg/L (≈ 11.1 µM)
[1]; [2]
  MIC50: ≤ 0.25 mg/L
  MIC90: ≤ 0.25 mg/L
[1]; [3]
  MIC50: 1 mg/L (≈ 2.77 µM)
  MIC90: > 4 mg/L
[1]; Morganella morganii, n=30
  MIC50: ≤ 0.25 mg/L
  MIC90: 4 mg/L (≈ 11.1 µM)
[1]; Proteus vulgaris, n=29
  MIC50: ≤ 0.25 mg/L
  MIC90: 1 mg/L (≈ 2.77 µM)
[1]; [4]
  MIC50: ≤ 0.25 mg/L
[1]; Salmonella species, n=30, read-out: MIC90
  MIC90: ≤ 0.25 mg/L
[1]; Serratia marcescens, n=30
  MIC50: ≤ 0.25 mg/L
  MIC90: 2 mg/L (≈ 5.53 µM)
[1]; Shigella species, n=30, read-out: MIC90
  MIC90: 0.5 mg/L (≈ 1.38 µM)
[1]; [6]
  MIC50: 0.25 mg/L (≈ 0.692 µM)
[1]; [7]
  MIC90: > 2 mg/L
[1]; [13]
  MIC50: > 2 mg/L
[1]; [14]
  MIC90: > 2 mg/L
[1]; [5]
  MIC50: 0.5 mg/L (≈ 1.38 µM)
  MIC90: > 4 mg/L
[1]; Streptococcus anginosus, n=20
  MIC50: 0.5 mg/L (≈ 1.38 µM)
  MIC90: 0.5 mg/L (≈ 1.38 µM)
[1]; [8]
  MIC50: 1 mg/L (≈ 2.77 µM)
  MIC90: 2 mg/L (≈ 5.53 µM)
[1]; Streptococcus mitis, n=29
  MIC50: 1 mg/L (≈ 2.77 µM)
  MIC90: 2 mg/L (≈ 5.53 µM)
[1]; [11]
  MIC50: 0.5 mg/L (≈ 1.38 µM)
[1]; [12]
  MIC90: 2 mg/L (≈ 5.53 µM)

## CN[C@H](CC(C)C)C(=O)N[C@H]1C(=O)N[C@@H](CC(N)=O)C(=O)N[C@H]2C(=O)N[C@H]3C(=O)N[C@H](C(=O)N[C@H](C(=O)O)c4cc(O)cc(O)c4-c4cc3ccc4O)[C@H](O)c3ccc(c(Cl)c3)Oc3cc2cc(c3O[C@@H]2O[C@H](CO)[C@@H](O)[C@H](O)[C@H]2O[C@H]2C[C@](C)(N)[C@H](O)[C@H](C)O2)Oc2ccc(cc2Cl)[C@H]1O [Vancomycin, vancomycin]
[1]; Staphylococcus aureus (MRSA PVL+), n=30, read-out: MIC50
  MIC50: 1 mg/L (≈ 0.69 µM)
[1]; [7]
  MIC90: 1 mg/L (≈ 0.69 µM)
[1]; [13]
  MIC50: 1 mg/L (≈ 0.69 µM)
[1]; [14]
  MIC90: 1 mg/L (≈ 0.69 µM)
[1]; Streptococcus anginosus, n=20, read-out: MIC50
  MIC50: 0.5 mg/L (≈ 0.345 µM)
[1]; Streptococcus anginosus, n=20, read-out: MIC90
  MIC90: 0.5 mg/L (≈ 0.345 µM)
[1]; Streptococcus intermedius, n=30, read-out: MIC50
  MIC50: 0.5 mg/L (≈ 0.345 µM)
[1]; Streptococcus intermedius, n=30, read-out: MIC90
  MIC90: 0.5 mg/L (≈ 0.345 µM)
[1]; Streptococcus mitis, n=29, read-out: MIC50
  MIC50: 0.5 mg/L (≈ 0.345 µM)
[1]; Streptococcus mitis, n=29, read-out: MIC90
  MIC90: 0.5 mg/L (≈ 0.345 µM)
[1]; [11]
  MIC50: 0.5 mg/L (≈ 0.345 µM)
[1]; [12]
  MIC90: 1 mg/L (≈ 0.69 µM)

## colistin
[1]; Acinetobacter lwoffii, n=29
  MIC50: ≦0.12 μg/ml
  MIC90: >2 mg/L
[1]; Enterobacter aerogenes, n=30
  MIC50: ≦0.12 μg/ml
  MIC90: ≦0.12 μg/ml
[1]; Enterobacter cloacae, n=29
  MIC50: ≦0.12 μg/ml
  MIC90: >2 mg/L
[1]; Escherichia coli, n=40
  MIC50: 0.25 mg/L
  MIC90: 0.5 mg/L
[1]; Kiebsielia oxytoca, n=30
  MIC50: ≦0.12 μg/ml
  MIC90: 0.25 mg/L
[1]; Klebsiella pneumonia, n=27
  MIC50: 0.25 mg/L
  MIC90: 0.5 mg/L
[1]; Morganella morganii, n=30
  MIC50: >2 mg/L
  MIC90: >2 mg/L
[1]; Proteus vulgaris, n=29
  MIC50: >2 mg/L
  MIC90: >2 mg/L
[1]; Salmonella species, n=30
  MIC50: ≦0.12 μg/ml
  MIC90: 0.5 mg/L
[1]; Serratia marcescens, n=30
  MIC50: >2 mg/L
  MIC90: >2 mg/L
[1]; Shigella species, n=30
  MIC50: ≦0.12 μg/ml
  MIC90: ≦0.12 μg/ml
[1]; [5]
  MIC50: 0.25 mg/L
  MIC90: >2 mg/L
